{"source": "patent US5026694A", "about": "“Platinum complexes with one radiosensitizing ligand” (priority 1989, dated 1991)", "key": {"[1]": {"test_system": "CHO cells", "experiment": "Radiosensitization of CHO cells (enhancement ratio)", "assay_type": "cell-based, Chinese hamster", "conditions": "for ER: Table 1, 100 mmol/dm^3; for radiosensitization, relative effectiveness: cis configuration, various concentrations, FIG. 2", "description": "Radiosensitization of CHO cells was determined as described by Moore, B. A., et al, sucra, at 4° C., except that the cells were incubated with complex for 1 hr at 37° C. to allow binding to DNA prior to radiation. A Picker X-ray source (250 kVp, 1.7 mm Cu) was used. As with the toxicity studies, cells were carried, irradiated, and plated in MEM a medium with 10% fetal calf serum, and plating efficiencies were determined on the seventh day after plating. Enhancement ratios (ER) were calculated from the doses required to reduce survival to 1%."}, "[2]": {"test_system": "L1210 cells, cDDP sensitive line", "experiment": "Toxicity in cisDDP-sensitive L1210 cells", "assay_type": "cell-based", "conditions": "read-out: ID50 (the source's name)", "from_the_text": "(§1) Patients become resistant to cisplatin (cisDDP) and to many related drugs."}, "[3]": {"test_system": "Chinese hamster ovary (CHO) cells", "experiment": "Toxicity in hypoxic and aerated CHO cells (plating efficiency/survival)", "assay_type": "cell-based", "parameters": "plating efficiency / effect on plating efficiency: dose or concentration left out as unconfirmed", "conditions": "for approximate order of hypoxic toxicity of platinum complexes: hypoxia; for toxicity compared with the compounds of the invention: 100 mM/dm^3 experiments", "description": "The toxicity of the invention compounds with respect to Chinese hamster ovary (CHO) cells was compared in air and in nitrogen induced hypoxia as described by Moore, B. A., et al, Radiation Research (1976) 67:459-478. The radiosensitizing ligands, or cis or transdichlorodiamine platinum II (DDP) or the . bisubstituted platinum complexes, PtCl2 (L)2, were used as controls.\nThe cells were carried in MEM a medium with 10% fetal calf serum, and plating efficiencies were determined on the seventh day after plating.\nIn similar experiments at 100 mM/dm^3, MISO and trans-[PtCl2 (miso)2 ] show no toxicity. Survival rates for trans-DDP and monoammine were 0.2 and 0.1 respectively.\nUsing 100 mM levels, mono-6NQ caused plating efficiency to drop to 0 after an hour, while 6NQ had no effect after 3 hours."}, "[4]": {"test_system": "plasmid pSV2-gpt DNA", "experiment": "Binding to DNA by inhibition of restriction enzyme (BamHI) cleavage of plasmid DNA", "assay_type": "biochemical", "parameters": "inhibition of BamHI cleavage / inhibition of cleavage with BamHI: unit of the concentration uncertain", "conditions": "for binding to DNA, relative: all concentrations, FIG. 8; for inhibition of cleavage with BamHI: FIG. 3", "description": "The ability of the invention compounds to bind DNA was tested using an assay which is based on inhibition of the ability of restriction enzymes to cleave the complexed DNA. The substrate in the assay was the plasmid pSV2-gpt (Mulligan, R., et al Science (1980) 209:1422-1427). After growth in E. coli. this 5.2 kb plasmid was extracted and linearized using PvuII. Cleavage of the extracted linearized segment by BamHI or EcoRI results in two fragments per enzyme. Inhibition of this cleavage by test compounds provides an assay method for binding of the test compounds.\nIn the assay, DNA (20 mg/ml) in 100 mM Tris-HCl, 1 mM EDTA, pH 8, was treated with the test compounds at approximately 100 mM for 1 hr at 37° C. Unbound drug was then removed using a G-50 Sephadex spin column (Pharmacia).\nTo 30 mM of the treated DNA, 23.5 ml of a buffer solution containing 0.33 M Tris-acetate, pH 7.9, 0.66 M potassium acetate, 0.10 M dithiothreitol, and 1 mg/ml BSA, along with 10 units of enzyme, were added. Enzyme activity was stopped using 1 ml 0.5 M EDTA after 30 min at 37° C. Tracking 0.25% bromophenol blue, 0.25% xylene cyanol in 30% glycerol water) was added, and 10 ml of the resulting solution loaded onto a 1% agarose gel made with E buffer (0.04 M Tris, 5 mM sodium acetate; 1 mM EDTA, pH 7.8) and subjected to horizontal electrophoresis. The slab gel was stained with aqueous ethidium bromide solution (1 ng/ml) and photographed under UV light.\nInhibition of the restriction enzyme cleavage was assessed qualitatively by noting the relative proportion of bands, or quantitatively by analyzing densitometric scans of the negatives of the recorded pictures."}, "[5]": {"test_system": "KHT sarcoma", "experiment": "Potentiation of cytotoxicity in vivo by hydralazine, KHT sarcoma model"}, "[6]": {"test_system": "L1210 cells, cDDP resistant line", "experiment": "Toxicity in cisDDP-resistant L1210 cells (cross-resistance)", "assay_type": "cell-based", "from_the_text": "as §1"}, "[7]": {"test_system": "DNA of CHO cells", "experiment": "Platinum bound to DNA extracted from whole CHO cells, atomic absorption", "assay_type": "cell-based, Chinese hamster", "parameters": "dose or concentration left out as unconfirmed", "conditions": "1-2 hr exposure", "from_the_text": "Though the results of this assay were erratic they establish that the Pt complexes cross cell membranes and bind to DNA in mammalian cells."}, "[8]": {"conditions": "100 mM/dm^3, cis configuration or ligand alone, dose to reduce survival to 1%"}, "[9]": {"conditions": "FIG. 7, cis-mono-4NI and cis-mono-5NI"}}, "note": "Read-outs that look alike come from different tables or passages of the source.", "data": [{"smiles": "COCC(O)Cn1cc[n+]([Pt-2]([NH3+])([Cl])[Cl])c1[N+](=O)[O-]", "note": "(stereo not drawn) [cis-mono-MISO, PtCl2 (NH3) (misonidazole)]", "values": [{"measurement": "ER", "setting": "[1]", "result": 1.25}, {"measurement": "sensitization in oxygen", "setting": "[1]", "result": "no sensitization"}, {"measurement": "IC50", "setting": "[2]; listed as cis mono MISO", "result": 8.5, "unit": "mM"}, {"measurement": "toxicity in hypoxia versus in air", "setting": "[3]; 100 mM/dm^3, aerobic and hypoxic cells, FIG. 1", "result": "toxicity is greater in hypoxia than in air"}, {"measurement": "toxicity compared with MISO alone and cisDDP", "setting": "[3]; complex 100 mM/dm^3, cis-DDP at 10 mM/dm^3", "result": "more toxic than MISO alone, although less toxic than cisDDP"}]}, {"smiles": "N.O=[N+]([O-])c1c[nH]cn1.[Cl][Pt][Cl]", "note": "[mono-4NI, PtCl2 (ammine)(4-nitroimidazole)]", "values": [{"measurement": "enhancement ratio (ER)", "setting": "[1]; [8]", "result": 1.16}, {"measurement": "enhancement ratio (ER)", "setting": "[1]; [9]", "result": 1.16}, {"measurement": "radiosensitization, relative effectiveness", "setting": "[1]", "result": "somewhat more effective than mono-ANT"}, {"measurement": "binding to DNA, relative", "setting": "[4]", "result": "neither bound as well, however, as cis-DDP"}, {"measurement": "approximate order of hypoxic toxicity of platinum complexes", "setting": "[3]", "result": "cis-DDP ff trans-mono-MISO f monoammine Z cis-mono-MISO f trans-DDP f mono-METRO Z mono-NI f mono-ANT"}]}, {"smiles": "N.O=[N+]([O-])c1cnc[nH]1.[Cl][Pt][Cl]", "note": "[mono-5NI, PtCl2 (ammine)(5-nitroimidazole)]", "values": [{"measurement": "enhancement ratio (ER)", "setting": "[1]; [9]", "result": 1.28}, {"measurement": "binding to DNA, relative", "setting": "[4]", "result": "more effective binding to DNA at all concentrations than cis-mono-4NI; neither bound as well, however, as cis-DDP"}]}, {"smiles": "N.O=[N+]([O-])c1ccc2ncccc2c1.[Cl][Pt][Cl]", "note": "[mono-6NQ, [PtCl2 (NH3)(6-nitroquinoline)]", "values": [{"measurement": "toxicity compared with 6NQ alone", "setting": "[3]; FIG. 5", "result": "much higher toxicity than 6NQ alone"}, {"measurement": "plating efficiency", "setting": "[3]; after an hour, 60 min", "result": 0}]}, {"smiles": "N.Nc1ncc([N+](=O)[O-])s1.[Cl][Pt][Cl]", "note": "[mono-ANT, PtCl2 (ammine)(2-amino-5-nitrothiazole)]", "values": [{"measurement": "enhancement ratio (ER)", "setting": "[1]; [8]", "result": 1.15}, {"measurement": "inhibition of cleavage with BamHI", "setting": "[4]; 320 (unit uncertain)", "result": "At least 10%"}, {"measurement": "approximate order of hypoxic toxicity of platinum complexes", "setting": "[3]", "result": "cis-DDP ff trans-mono-MISO f monoammine Z cis-mono-MISO f trans-DDP f mono-METRO Z mono-NI f mono-ANT"}]}, {"smiles": "Cc1ncc([N+](=O)[O-])n1CCO.N.[Cl][Pt][Cl]", "note": "[mono-METRO]", "values": [{"measurement": "radiosensitization, relative effectiveness", "setting": "[1]", "result": "approximately equal to mono-ANT"}, {"measurement": "inhibition of cleavage with BamHI", "setting": "[4]; approximately 50 mM", "result": "At least 10%"}, {"measurement": "approximate order of hypoxic toxicity of platinum complexes", "setting": "[3]", "result": "cis-DDP ff trans-mono-MISO f monoammine Z cis-mono-MISO f trans-DDP f mono-METRO Z mono-NI f mono-ANT"}]}, {"smiles": "COCC(O)Cn1cc[n+]([Pt-2]([NH3+])([Cl])[Cl])c1[N+](=O)[O-]", "note": "(stereo not shown) [mono-MISO, PtCl2 (NH3) (misonidazole)]", "values": [{"measurement": "potentiation by hydralazine", "setting": "[5]; hydralazine 5 mg/kg, FIG. 4", "result": "potentiating effects of hydralazine on this compound"}, {"measurement": "dose reduction to achieve equitoxic doses when hydralazine is coadministered", "setting": "[5]; with hydralazine", "result": 4, "unit": "×"}, {"measurement": "drop in cell survival with combined therapy", "setting": "[5]; with hydralazine, mono-MISO 10 to 300 mg/kg, FIG. 4", "result": "approx. 3 logs"}, {"measurement": "radiosensitization, relative effectiveness", "setting": "[1]", "result": "somewhat more effective than mono-NI"}, {"measurement": "inhibition of cleavage with BamHI", "setting": "[4]; approximately 50 mM", "result": "At least 10%"}]}, {"smiles": "N.[Cl][Pt-]([Cl])[Cl].[K+]", "note": "[monoammine, K[PtCl3 (NH3)]]", "values": [{"measurement": "ER", "setting": "[1]", "result": 1.2}, {"measurement": "inhibition of BamHI cleavage", "setting": "[4]; 160 mM (level not reached until this concentration)", "result": 30, "unit": "%"}, {"measurement": "binding to DNA as indicated by enzyme inhibition", "setting": "[4]; 1 hr at 37° C.", "result": "showed binding to the DNA as indicated by enzyme inhibition"}, {"measurement": "Survival rate", "setting": "[3]; 100 mM/dm^3", "result": 0.1}, {"measurement": "toxicity compared with the compounds of the invention", "setting": "[3]", "result": "somewhat more toxic than the compounds of the invention"}, {"measurement": "approximate order of hypoxic toxicity of platinum complexes", "setting": "[3]", "result": "cis-DDP ff trans-mono-MISO f monoammine Z cis-mono-MISO f trans-DDP f mono-METRO Z mono-NI f mono-ANT"}]}, {"smiles": "N.N.[Cl][Pt+2][Cl]", "note": "[trans-DDP, transdichlorodiamine platinum II]", "values": [{"measurement": "IC50", "setting": "[6]; L1210, cDDP resistant line, read-out: ID50 (the source's name)", "result": 66, "unit": "mM"}, {"measurement": "Ratio (ID50 cDDP resistant/cDDP sensitive)", "setting": "[6]; L1210 cells", "result": 3}, {"measurement": "ER", "setting": "[1]", "result": 1.3}, {"measurement": "platinum bound to the extracted DNA", "setting": "[7]", "result": 5, "unit": "ng Pt/10^6 cells"}, {"measurement": "IC50", "setting": "[2]", "result": 22, "unit": "mM"}, {"measurement": "Survival rate", "setting": "[3]; 100 mM/dm^3", "result": 0.2}, {"measurement": "toxicity compared with the compounds of the invention", "setting": "[3]", "result": "somewhat less toxic"}, {"measurement": "approximate order of hypoxic toxicity of platinum complexes", "setting": "[3]", "result": "cis-DDP ff trans-mono-MISO f monoammine Z cis-mono-MISO f trans-DDP f mono-METRO Z mono-NI f mono-ANT"}]}, {"smiles": "COCC(O)Cn1cc[n+]([Pt-2]([Cl])([Cl])[n+]2ccn(CC(O)COC)c2[N+](=O)[O-])c1[N+](=O)[O-]", "note": "(stereo not drawn) [trans-bis-MISO, trans-[PtCl2 (miso)2]]", "values": [{"measurement": "ER", "setting": "[1]", "result": 1.2}, {"measurement": "sensitization in oxygen", "setting": "[1]", "result": "no sensitization"}, {"measurement": "toxicity", "setting": "[3]; 100 mM/dm^3", "result": "no toxicity"}, {"measurement": "toxicity compared with the compounds of the invention", "setting": "[3]", "result": "somewhat less toxic"}]}]}
